Test in all cases: NCI-60 cell line screen, 48 h
The subject of experiment [1] is HT-29.
Experiment [2] has as its system NCI-H23.
The subject of experiment [3] is SNB-75.
Experiment [4] relates to SF-295.
Experiment [5] concerns MCF7.
In experiment [6] the test system is SK-OV-3.
The subject of experiment [7] is SN12C.
The subject of experiment [8] is EKVX.
Experiment [9] concerns A549.
For experiment [10], the system named is U-251.
For experiment [11], the system named is Malme-3M.
Experiment [12] deals with HCT-116.
Experiment [13] deals with NCI-H226.
Experiment [14] relates to A498.
Experiment [15] deals with K562.
Experiment [16] deals with SK-MEL-2.
The subject of experiment [17] is SF-539.

This note sets out measurements from ChEMBL document CHEMBL1201862, “PubChem BioAssay data set” (2004).

Molecules are shown by their SMILES.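 1) Cells in 96-well plates. 2) Compound, 48 h, 5 concentrations. 3) Linear interpolation between surrounding doses. 4) Unreached endpoint = highest concentration. GI50: concentration for 50% inhibition of growth.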 Active and inactive are the calls of the source. Cut-off read from the data, not from the text of the source: active = GI50 up to about 1.1 µM and inactive = higher. Some results are limits rather than exact numbers.

`O=S(=O)(c1ccccc1)n1c2cc3cccnc3nc2c2cccnc21`: the GI50 is 60.4 µM (inactive) in experiment [1]; 44.9 µM (inactive) in experiment [2]; 28.4 µM (inactive) in [3]; 49.8 µM (inactive) in experiment [4]; 46 µM (inactive) in [5]; > 100 µM (inactive) in experiment [6]. For the same compound, the GI50 is 81.3 µM (inactive) in [7]; > 100 µM (inactive) in [8]; > 100 µM (inactive) in experiment [9]; 40.5 µM (inactive) in experiment [10]; > 100 µM (inactive) in [11]; 82.2 µM (inactive) in experiment [12]. The GI50 was > 100 µM (inactive) in experiment [13], > 100 µM (inactive) in [14], 17.3 µM (inactive) in experiment [15] and > 100 µM (inactive) in [16].

As for `COc1ccc2c(c1)SC1=Nc3sc4cc(OC)ccc4[n+]3CN12`, the GI50 in [1] was 16.2 µM (inactive); in experiment [2], 15.7 µM (inactive); in experiment [4], 31.3 µM (inactive); in experiment [5] it was 5.25 µM (inactive); in experiment [6] it was 70.5 µM (inactive); in [7] it was 25.5 µM (inactive). Moreover, the GI50 is 26.4 µM (inactive) in experiment [8]; 29.1 µM (inactive) in experiment [9]; 4.34 µM (inactive) in experiment [10]; 14.6 µM (inactive) in experiment [11]; 42.2 µM (inactive) in experiment [17]; 41 µM (inactive) in experiment [12]. For the same compound, the values for the GI50 in experiment [15] and in experiment [16] were 4.16 µM (inactive) and 15.8 µM (inactive), respectively.

For `CCC1OC2C(CC=C(C)C)=C3OC(C)(O)C(C)(CC)C(=O)C3=C3OC(=O)C=C1C32` (configuration not stated), the GI50 in experiment [2] is 28.4 µM (inactive); in experiment [4], 47 µM (inactive); in [5], 27.9 µM (inactive); in experiment [6], > 100 µM (inactive); in [8], 29.4 µM (inactive); in experiment [9], 22.6 µM (inactive). Further, the GI50 in [10] is 36 µM (inactive); in experiment [17], 8.55 µM (inactive); in experiment [12], 15.5 µM (inactive); in experiment [13], 25.9 µM (inactive); in experiment [14], 23.6 µM (inactive); in [15], 26 µM (inactive). Further, the GI50 in [16] was 17.3 µM (inactive).

For `CN/C(=N\c1ccc(OC)c2ccccc12)SC`, the GI50 in experiment [1] was > 10 µM (inactive); in experiment [2] it was > 10 µM (inactive); in [3] it was > 10 µM (inactive); in experiment [4], 7.43 µM (inactive); in [5], > 10 µM (inactive); in experiment [6] it was > 10 µM (inactive). The GI50 in experiment [7], in [9], in experiment [10], in [11], in experiment [17] and in experiment [12] was > 10 µM (inactive) in each case. Also, in experiment [15], the GI50 was > 10 µM (inactive).

As for `CCOC(=O)Nc1cc(NC(/C=N/NC(C)=O)C(=O)OCC)c(OC)cc1NC(C)=O` (configuration not stated), the GI50 in [1], in experiment [2], in [3], in experiment [4], in experiment [5] and in experiment [6] was > 100 µM (inactive) throughout. The GI50 in experiment [7], in experiment [8], in [9], in experiment [10], in [11] and in [12] was > 100 µM (inactive) throughout. Besides, the GI50 in [13], in [14], in experiment [15] and in experiment [16] was > 100 µM (inactive) in each case.

As to `C=CCNS(=O)(=O)c1ncnc2[nH]cnc12`, the GI50 in experiment [1], in experiment [2], in [3], in experiment [4], in experiment [5] and in experiment [6] was > 100 µM (inactive) throughout. Besides, the GI50 in [7] was 55.6 µM (inactive); in experiment [8] it was > 100 µM (inactive); in experiment [9], > 100 µM (inactive); in [10] it was > 100 µM (inactive); in experiment [11], > 100 µM (inactive); in experiment [12], > 100 µM (inactive). Besides, the GI50 was > 100 µM (inactive) in experiment [13], > 100 µM (inactive) in [14], 10.5 µM (inactive) in experiment [15] and > 100 µM (inactive) in experiment [16].

Regarding `Cc1ccc(S(=O)(=O)N2CCCSCCSCCCSCC2)cc1`, the GI50 is > 100 µM (inactive) in experiment [1]; > 100 µM (inactive) in experiment [2]; 86.7 µM (inactive) in experiment [3]; > 100 µM (inactive) in [4]; > 100 µM (inactive) in experiment [5]; > 100 µM (inactive) in [6]. For the same compound, the GI50 in experiment [7], in experiment [8], in [9], in [10], in experiment [17] and in experiment [12] was > 100 µM (inactive) throughout. Also, the GI50 in experiment [15] was > 100 µM (inactive).

Turning to `Cc1ccc(S[C@@H](C)[C@@](O)(CF)CN(Cc2ccccc2)C(=O)C(F)(F)F)cc1`, the GI50 in [1] is 10.3 µM (inactive); in [2], 18.4 µM (inactive); in experiment [5] it was 20.8 µM (inactive); in experiment [7], 18.4 µM (inactive); in experiment [8] it was 21.8 µM (inactive); in experiment [9], 14.8 µM (inactive). Moreover, the GI50 is 19 µM (inactive) in experiment [10]; 20.9 µM (inactive) in experiment [11]; 11.4 µM (inactive) in [12]; 11.5 µM (inactive) in experiment [14]; 18.5 µM (inactive) in [16].

`COC(=O)c1nsc(OC)c1Cl`: the GI50 in [1], in experiment [2], in [3], in experiment [4], in [5] and in experiment [6] was > 100 µM (inactive) throughout. Further, the GI50 in experiment [7], in [8], in [9], in [10], in experiment [11] and in [17] was > 100 µM (inactive) in each case. Moreover, the GI50 in experiment [12], in [13] and in experiment [15] was > 100 µM (inactive) in each case.

On to `C=CC(C)(C)n1cc(C2=C(O)C(=O)C(c3c(CC=C(C)C)[nH]c4ccccc34)=C(O)C2=O)c2ccccc21`, for which the GI50 in [1] was 2.28 µM (inactive); in experiment [2] it was 3.03 µM (inactive); in experiment [3], 0.796 µM (active); in experiment [4], 1.58 µM (inactive); in experiment [6] it was 2.14 µM (inactive); in experiment [7] it was 1.57 µM (inactive). Also, the GI50 in experiment [8] is 1.91 µM (inactive); in experiment [9] it was 0.624 µM (active); in [10], 1.1 µM (active); in [11] it was 1.82 µM (inactive); in [12], 1.94 µM (inactive); in [13] it was 1.53 µM (inactive). The GI50 in experiment [14] is 1.57 µM (inactive); in experiment [15], 0.476 µM (active); in [16], 1.59 µM (inactive).
